In US20190369111A1, “MOLECULAR KINETICS EVALUATION METHOD AND SCREENING METHOD” (Tokyo University of Science Foundation, priority 2016, published 2019):

Target: T1, wild-type H-Ras protein (Homo sapiens, UniProt P01112)
T1 construct: an endogenous wild-type K-Ras protein and wild-type H-Ras protein in HeLa cells; endogenous in cells; host or cells: HeLa cells
Assay: Degradation of endogenous wild-type H-Ras protein in HeLa cells, Western blot analysis
Assay type: cell-based
Details: 48 hours after addition
Method: HeLa cells were seeded in a 24-well plate at a cell density of 8×10^4 cells/well, and then cultured under conditions of 37° C. and 5 vol % CO2 for 16 hours.
After 16 hours from cell seeding, TUS-007 was added to HeLa cells as follows. As a medium, a serum-free medium (37° C.) in which 1 mass % L-glutamine solution (Sigma-Aldrich) was added to D-MEM (high D-glucose, phenol red, sodium pyruvate (Wako Pure Chemical Industries, Ltd.)) was used. It is noted that the L-glutamine solution was added immediately before use. A DMSO solution containing TUS-007 was mixed with the medium so that the concentration of DMSO was 1 vol %, and added to each well at 500 μL/well, and cultured under conditions of 37° C. and 5 vol % CO2. As a control, DMSO was used.
The medium was removed 48 hours after addition of TUS-007, and then PBS was added to wash the cells. […]
After electrophoresis, proteins were transferred to a PVDF membrane (Immobion™-P, Millipore) under conditions of 100 V and 2 hours using a tank-type blotting device and a transfer buffer (25 mM Tris-HCl, 195 mM glycine, 0.01% SDS, 15% methanol). […] Subsequently, the membrane was treated with a chemiluminescence reagent Immobilon™ Western (Millipore), and then chemiluminescence was detected using a lumino image analyzer LAS-3000 (FUJIFILM Corporation). […]

T1 sequence (P01112 whole entry): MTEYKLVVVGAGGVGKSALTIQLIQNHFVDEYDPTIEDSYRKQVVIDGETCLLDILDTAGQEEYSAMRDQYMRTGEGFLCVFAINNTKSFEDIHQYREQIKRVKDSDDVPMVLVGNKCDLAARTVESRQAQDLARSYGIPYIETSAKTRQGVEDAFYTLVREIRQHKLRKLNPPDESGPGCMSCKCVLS

Compound: CC[C@@H](C)[C@H](NC(=O)CCCCCCNC(=O)[C@H](CC(C)C)NC(=O)CNC(=O)c1cc(Cl)ccc1Cl)C(=O)Nc1ccc2[nH]c(Cc3c[nH]c4ccccc34)nc2c1 [TUS-007]
- amount of endogenous wild-type H-Ras protein: reduced
